Measurements taken from article PMC11345841, “Exploring 2-Sulfonylpyrimidine Warheads as Acrylamide Surrogates for Targeted Covalent Inhibition: A BTK Story” (Journal of Medicinal Chemistry, 2024).
Read-outs that look alike come from different tables or passages of the source.

Key:
[1] = tested on: TMD8 cells; assay: Annexin V/propidium iodide staining (apoptosis, viability); type: cell-based, human; conditions: 72 h
Description: We tested the effects of compounds in TMD8 cells, derived from an activated B-cell DLBCL. These cells have constitutive signaling via the BCR and additionally carry MYD88^L265P and CD79B mutations which give rise to My-T-BCR complex. […] Apoptosis was quantified after exposure of cells to compounds for 72 h using annexin V/PI staining and flow cytometry (Figure 3E, Figure S4).
Cells were washed in phosphate-buffered saline and resuspended in 300 μL of annexin V staining buffer (10 mM HEPES HCl (pH 7.4), 140 mM NaCl, 2.5 mM CaCl2) supplemented with 2.5 μg/mL fluorescein isothiocyanate-labeled annexin V (kind gift from Dr Patrick Duriez, Protein Core Facility, University of Southampton) and 12.5 μM propidium iodide (Invitrogen). Cells were analyzed by flow cytometry (Canto II system, BD Biosciences) and the percentage of viable cells was determined by calculating the proportion of Annexin V-/PI-cells as a percentage of all cells (results for untreated cells at 72 h set to 100%).

[2] = tested on: FLT3(ITD,F691L); assay: KINOMEscan ScanTK; type: binding; conditions: for % difference (compound - Ib %Control) / %Control: @1000nM
[3] = target: T1, CTK (Homo sapiens, UniProt P42679); assay: KINOMEscan ScanTK; type: binding
T1 construct: purchased Eurofins DiscoverX KINOMEscan (scanTK)
T1 sequence (P42679 1-507): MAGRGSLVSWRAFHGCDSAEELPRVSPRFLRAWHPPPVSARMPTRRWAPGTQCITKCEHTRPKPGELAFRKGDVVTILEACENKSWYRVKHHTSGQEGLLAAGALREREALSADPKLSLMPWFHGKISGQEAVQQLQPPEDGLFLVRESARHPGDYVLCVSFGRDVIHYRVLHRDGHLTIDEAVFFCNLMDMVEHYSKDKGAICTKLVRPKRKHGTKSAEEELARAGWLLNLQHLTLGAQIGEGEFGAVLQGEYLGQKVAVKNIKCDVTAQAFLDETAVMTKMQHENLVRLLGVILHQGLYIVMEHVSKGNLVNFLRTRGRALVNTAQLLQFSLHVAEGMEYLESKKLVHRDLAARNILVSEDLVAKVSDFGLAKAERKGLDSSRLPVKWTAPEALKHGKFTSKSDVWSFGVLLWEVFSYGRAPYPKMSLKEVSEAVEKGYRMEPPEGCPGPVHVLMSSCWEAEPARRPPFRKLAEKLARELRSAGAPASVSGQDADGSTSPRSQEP

[4] = target: T2, EGFR(L858R) (Homo sapiens, UniProt P00533, L858R); assay: KINOMEscan ScanTK; type: binding
T2 construct: purchased Eurofins DiscoverX KINOMEscan (scanTK)

[5] = target: T3, FYN (Homo sapiens, UniProt P06241); assay: KINOMEscan ScanTK; type: binding
T3 construct: purchased Eurofins DiscoverX KINOMEscan (scanTK)

[6] = target: T4, ABL1(H396P)-nonphosphorylated (Homo sapiens, UniProt P00519, H396P); assay: KINOMEscan ScanTK; type: binding
T4 construct: purchased Eurofins DiscoverX KINOMEscan (scanTK)

[7] = target: T5, INSRR (Homo sapiens, UniProt P14616); assay: KINOMEscan ScanTK; type: binding
T5 construct: purchased Eurofins DiscoverX KINOMEscan (scanTK)

[8] = target: T6, FGFR4 (Homo sapiens, UniProt P22455); assay: KINOMEscan ScanTK; type: binding
T6 construct: purchased Eurofins DiscoverX KINOMEscan (scanTK)

[9] = target: T7, FGFR1 (Homo sapiens, UniProt P11362); assay: KINOMEscan ScanTK; type: binding
T7 construct: purchased Eurofins DiscoverX KINOMEscan (scanTK)

[10] = target: T8, FES (Homo sapiens, UniProt P07332); assay: KINOMEscan ScanTK; type: binding
T8 construct: purchased Eurofins DiscoverX KINOMEscan (scanTK)

[11] = target: JAK3, catalytic domain (795–1124) (Homo sapiens, UniProt P52333); assay: PhosphoSens enzymatic IC50 (AssayQuant)
[12] = target: BTK, full length (2–659) (Homo sapiens, UniProt Q06187); assay: Kinact/Ki determination, PhosphoSens progress curve analysis; type: biochemical
Description: Nonlinear regression was performed using the Solver algorithm in Excel. […] Two-step Kinact/Ki fits were extracted from the progress curve analysis of all compounds against BTK, enabling independent Kinact and Ki determinations.

T3 sequence (P06241 whole entry): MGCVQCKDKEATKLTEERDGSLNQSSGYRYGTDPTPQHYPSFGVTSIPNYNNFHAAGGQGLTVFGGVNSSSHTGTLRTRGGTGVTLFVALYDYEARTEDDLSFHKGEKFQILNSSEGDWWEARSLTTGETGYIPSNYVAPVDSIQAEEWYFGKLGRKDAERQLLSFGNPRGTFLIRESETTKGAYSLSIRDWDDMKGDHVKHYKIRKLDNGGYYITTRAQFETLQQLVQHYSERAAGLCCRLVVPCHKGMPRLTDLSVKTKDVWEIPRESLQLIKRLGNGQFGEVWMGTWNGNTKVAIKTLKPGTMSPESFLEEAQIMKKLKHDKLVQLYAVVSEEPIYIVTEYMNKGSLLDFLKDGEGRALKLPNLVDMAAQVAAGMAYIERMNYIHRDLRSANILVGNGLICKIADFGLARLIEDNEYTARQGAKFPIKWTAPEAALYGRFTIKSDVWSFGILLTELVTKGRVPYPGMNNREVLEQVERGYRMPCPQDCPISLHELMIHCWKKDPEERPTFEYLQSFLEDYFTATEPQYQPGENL
T6 sequence (P22455 22-802): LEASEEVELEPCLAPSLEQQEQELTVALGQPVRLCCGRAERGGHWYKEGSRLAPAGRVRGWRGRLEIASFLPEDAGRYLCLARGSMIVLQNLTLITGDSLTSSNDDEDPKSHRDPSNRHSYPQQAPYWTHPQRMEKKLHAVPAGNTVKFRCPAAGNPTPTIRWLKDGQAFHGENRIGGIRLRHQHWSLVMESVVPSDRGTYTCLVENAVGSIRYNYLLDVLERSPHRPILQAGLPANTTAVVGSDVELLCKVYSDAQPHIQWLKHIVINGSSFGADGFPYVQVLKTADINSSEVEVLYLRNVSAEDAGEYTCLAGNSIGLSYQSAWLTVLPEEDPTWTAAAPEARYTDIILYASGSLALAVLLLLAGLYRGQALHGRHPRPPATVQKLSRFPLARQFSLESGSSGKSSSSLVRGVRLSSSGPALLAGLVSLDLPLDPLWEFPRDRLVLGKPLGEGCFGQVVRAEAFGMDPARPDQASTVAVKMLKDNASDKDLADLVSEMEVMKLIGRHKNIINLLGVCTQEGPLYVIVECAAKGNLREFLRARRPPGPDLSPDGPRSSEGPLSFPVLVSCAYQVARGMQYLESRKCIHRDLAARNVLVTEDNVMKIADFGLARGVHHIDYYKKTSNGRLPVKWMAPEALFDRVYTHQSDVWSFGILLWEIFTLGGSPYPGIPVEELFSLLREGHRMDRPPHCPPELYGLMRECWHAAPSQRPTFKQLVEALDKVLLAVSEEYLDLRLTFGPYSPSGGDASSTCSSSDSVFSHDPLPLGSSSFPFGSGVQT
T2 sequence (P00533 25-1210 L858R): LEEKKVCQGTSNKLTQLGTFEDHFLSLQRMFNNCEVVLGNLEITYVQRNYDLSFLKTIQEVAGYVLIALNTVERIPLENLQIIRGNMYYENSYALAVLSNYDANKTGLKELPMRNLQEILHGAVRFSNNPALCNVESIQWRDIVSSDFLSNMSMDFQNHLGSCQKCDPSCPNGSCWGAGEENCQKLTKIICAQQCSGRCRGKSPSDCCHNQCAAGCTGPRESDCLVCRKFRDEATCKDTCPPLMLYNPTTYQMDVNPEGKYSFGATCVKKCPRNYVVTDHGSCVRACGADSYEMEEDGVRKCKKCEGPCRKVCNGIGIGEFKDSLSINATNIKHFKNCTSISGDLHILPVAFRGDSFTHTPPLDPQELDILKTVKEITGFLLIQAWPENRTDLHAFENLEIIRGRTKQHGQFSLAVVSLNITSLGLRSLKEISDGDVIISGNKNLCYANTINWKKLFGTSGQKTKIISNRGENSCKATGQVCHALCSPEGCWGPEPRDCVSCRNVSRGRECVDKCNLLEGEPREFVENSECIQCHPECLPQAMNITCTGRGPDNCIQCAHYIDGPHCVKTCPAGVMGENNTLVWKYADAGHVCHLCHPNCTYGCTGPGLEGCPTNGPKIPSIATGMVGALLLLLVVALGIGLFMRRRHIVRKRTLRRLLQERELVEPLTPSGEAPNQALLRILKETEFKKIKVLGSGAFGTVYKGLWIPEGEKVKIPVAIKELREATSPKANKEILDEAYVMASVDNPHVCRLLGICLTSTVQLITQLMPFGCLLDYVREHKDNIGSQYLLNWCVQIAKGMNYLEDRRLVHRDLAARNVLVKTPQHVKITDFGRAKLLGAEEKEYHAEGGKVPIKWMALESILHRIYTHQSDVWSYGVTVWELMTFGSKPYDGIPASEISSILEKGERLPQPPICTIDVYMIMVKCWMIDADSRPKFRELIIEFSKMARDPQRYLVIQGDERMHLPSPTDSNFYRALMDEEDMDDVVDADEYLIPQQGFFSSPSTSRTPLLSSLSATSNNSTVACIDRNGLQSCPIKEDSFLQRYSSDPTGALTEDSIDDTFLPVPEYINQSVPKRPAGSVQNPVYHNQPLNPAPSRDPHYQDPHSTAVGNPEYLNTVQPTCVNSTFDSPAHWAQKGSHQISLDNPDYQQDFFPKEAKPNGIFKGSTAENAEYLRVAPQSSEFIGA
T7 sequence (P11362 22-822): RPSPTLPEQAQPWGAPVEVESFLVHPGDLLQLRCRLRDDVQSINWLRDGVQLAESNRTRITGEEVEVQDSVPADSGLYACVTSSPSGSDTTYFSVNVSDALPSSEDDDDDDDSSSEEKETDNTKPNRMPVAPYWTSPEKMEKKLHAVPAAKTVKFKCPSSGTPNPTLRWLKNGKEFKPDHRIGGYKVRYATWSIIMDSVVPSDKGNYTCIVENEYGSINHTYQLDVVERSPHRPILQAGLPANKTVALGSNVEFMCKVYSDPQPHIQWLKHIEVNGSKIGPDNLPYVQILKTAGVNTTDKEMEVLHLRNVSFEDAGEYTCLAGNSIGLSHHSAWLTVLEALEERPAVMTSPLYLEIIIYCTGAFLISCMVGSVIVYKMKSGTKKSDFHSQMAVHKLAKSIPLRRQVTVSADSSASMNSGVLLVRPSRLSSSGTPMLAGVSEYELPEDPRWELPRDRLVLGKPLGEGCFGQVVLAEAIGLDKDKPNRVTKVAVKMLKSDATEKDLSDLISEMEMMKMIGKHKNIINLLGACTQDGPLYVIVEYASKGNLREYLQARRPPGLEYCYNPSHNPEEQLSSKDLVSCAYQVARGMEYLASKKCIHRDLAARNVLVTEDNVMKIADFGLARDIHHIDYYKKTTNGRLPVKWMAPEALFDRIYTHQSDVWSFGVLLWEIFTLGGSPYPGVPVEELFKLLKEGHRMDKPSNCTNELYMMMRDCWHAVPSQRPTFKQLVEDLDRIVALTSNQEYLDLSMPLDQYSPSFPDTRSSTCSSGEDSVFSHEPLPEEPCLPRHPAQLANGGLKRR
T8 sequence (P07332 whole entry): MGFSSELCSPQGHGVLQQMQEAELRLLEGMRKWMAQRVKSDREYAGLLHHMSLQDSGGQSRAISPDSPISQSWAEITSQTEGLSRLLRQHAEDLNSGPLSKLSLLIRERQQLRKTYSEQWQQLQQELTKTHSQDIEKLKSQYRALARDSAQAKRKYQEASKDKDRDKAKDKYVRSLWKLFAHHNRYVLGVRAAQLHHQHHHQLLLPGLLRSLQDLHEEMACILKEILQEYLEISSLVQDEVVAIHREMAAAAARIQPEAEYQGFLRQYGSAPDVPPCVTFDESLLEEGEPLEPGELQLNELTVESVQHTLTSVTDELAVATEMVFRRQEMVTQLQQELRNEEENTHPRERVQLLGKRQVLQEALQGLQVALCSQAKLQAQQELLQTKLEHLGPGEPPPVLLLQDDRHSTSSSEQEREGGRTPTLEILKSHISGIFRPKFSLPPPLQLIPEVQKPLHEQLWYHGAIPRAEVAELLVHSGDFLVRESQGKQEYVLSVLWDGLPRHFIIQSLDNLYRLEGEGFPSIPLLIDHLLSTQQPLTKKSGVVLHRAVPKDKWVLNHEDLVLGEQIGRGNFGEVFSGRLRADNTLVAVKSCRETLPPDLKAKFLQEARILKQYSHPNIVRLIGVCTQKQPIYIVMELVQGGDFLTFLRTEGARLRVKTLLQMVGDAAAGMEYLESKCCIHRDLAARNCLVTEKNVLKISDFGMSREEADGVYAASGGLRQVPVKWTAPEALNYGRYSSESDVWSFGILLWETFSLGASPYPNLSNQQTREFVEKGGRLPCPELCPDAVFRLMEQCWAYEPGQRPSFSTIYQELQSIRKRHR
BTK, full length (2–659), sequence (Q06187 2-659): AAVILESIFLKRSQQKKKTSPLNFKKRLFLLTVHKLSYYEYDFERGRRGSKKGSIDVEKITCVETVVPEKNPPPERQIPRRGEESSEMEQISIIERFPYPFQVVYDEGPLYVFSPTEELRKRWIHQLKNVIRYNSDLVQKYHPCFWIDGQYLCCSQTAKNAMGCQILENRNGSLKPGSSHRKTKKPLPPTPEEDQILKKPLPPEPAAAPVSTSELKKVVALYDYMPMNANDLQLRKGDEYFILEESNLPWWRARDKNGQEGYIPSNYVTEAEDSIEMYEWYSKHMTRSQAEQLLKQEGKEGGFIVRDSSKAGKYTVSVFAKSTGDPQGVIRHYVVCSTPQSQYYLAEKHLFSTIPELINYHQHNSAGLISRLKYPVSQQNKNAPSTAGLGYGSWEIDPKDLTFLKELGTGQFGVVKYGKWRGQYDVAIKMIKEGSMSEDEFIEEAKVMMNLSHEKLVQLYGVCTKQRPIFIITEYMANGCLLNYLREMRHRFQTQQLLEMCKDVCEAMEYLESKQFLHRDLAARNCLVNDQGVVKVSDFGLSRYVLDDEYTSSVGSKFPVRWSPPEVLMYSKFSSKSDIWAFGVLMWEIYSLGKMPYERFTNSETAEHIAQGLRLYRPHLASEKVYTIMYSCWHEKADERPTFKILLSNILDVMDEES

Row | difference in %Control versus compound Ib at 1 µM ([3]; @1000nM) [%] | remaining binding at 1 µM ([3]; @1000nM, read-out: %Control) [%] | remaining binding at 1 µM ([3]; read-out: %Control @1000nM) [%] | %Control difference from compound Ib at 1 µM ([4]; @1000nM) [%] | remaining binding at 1 µM ([4]; @1000nM, read-out: %Control) [%] | remaining binding at 1 µM ([4]; read-out: %Control @1000nM) [%] | difference in % of control versus compound Ib at 1 µM ([5]; @1000nM) [%] | remaining binding at 1 µM ([5]; @1000nM, read-out: %Control) [%] | remaining binding at 1 µM ([5]; read-out: %Control @1000nM) [%] | difference in %Control versus compound Ib at 1 µM ([6]; @1000nM) [%] | remaining binding at 1 µM ([6]; @1000nM, read-out: %Control) [%] | remaining binding at 1 µM ([6]; read-out: %Control @1000nM) [%] | difference in %Control versus compound Ib at 1 µM ([7]; @1000nM) [%] | remaining binding at 1 µM ([7]; @1000nM, read-out: %Control) [%] | remaining binding at 1 µM ([7]; read-out: %Control @1000nM) [%] | difference in %Control from compound Ib at 1 µM ([8]; @1000nM) [%] | SMILES | induction of apoptosis [1] | %Control @1000nM [2] [%] | % difference (compound - Ib %Control) [2] [%] | %Control [2] [%] | also measured
1 | 8 | 88 | 88 | 72.1 | 74 | 74 | 16.4 | 26 | 26 | 55 | 69 | 69 | 0 | 96 | 96 | -4 | COC(=O)c1cnc(S(C)(=O)=O)nc1N1CCCC(n2nc(-c3ccc(Oc4ccccc4)cc3)c3c(N)ncnc32)C1 (stereo not shown) [Compound 8b, Methyl 4-(3-(4-Amino-3-(4-phenoxyphenyl)-1H-pyrazolo[3,4-d]pyrimidin-1-yl)piperidin-1-yl)-2-(methylsulfonyl)pyrimidine-5-carboxylate] | induced apoptosis | 96 | -4 | 96 | remaining binding at 1 µM ([8]; @1000nM, read-out: %Control): 92%; remaining binding at 1 µM ([8]; read-out: %Control @1000nM): 92%; difference in %Control from compound Ib at 1 µM ([9]; @1000nM): 16%; remaining binding at 1 µM ([9]; @1000nM, read-out: %Control): 49%; remaining binding at 1 µM ([9]; read-out: %Control @1000nM): 49%; difference in %Control versus compound Ib at 1 µM ([10]; @1000nM): 0%; remaining binding at 1 µM ([10]; @1000nM, read-out: %Control): 100%; remaining binding at 1 µM ([10]; read-out: %Control @1000nM): 100%; IC50 [11]: > 1 µM; Ki ([12]; BTK): 0.0242 ± 0.00095 µM; kinact ([12]; BTK): 0.00792 ± 0.00019 s⁻¹; kinact/KI ([12]; BTK, read-out: Kinact/Ki): 328000 M⁻¹ s⁻¹
2 | -6 | 74 | 74 | 64.1 | 66 | 66 | 30.4 | 40 | 40 | 41 | 55 | 55 | -9 | 87 | 87 | -5 | CCOC(=O)c1cnc(S(C)(=O)=O)nc1N1CCC[C@@H](n2nc(-c3ccc(Oc4ccccc4)cc3)c3c(N)ncnc32)C1 [Compound 8c, Ethyl (R)-4-(3-(4-Amino-3-(4-phenoxyphenyl)-1H-pyrazolo[3,4-d]pyrimidin-1-yl)piperidin-1-yl)-2-(methylsulfonyl)pyrimidine-5-carboxylate] | essentially inactive | 100 | 0 | 100 | remaining binding at 1 µM ([8]; @1000nM, read-out: %Control): 91%; remaining binding at 1 µM ([8]; read-out: %Control @1000nM): 91%; difference in %Control from compound Ib at 1 µM ([9]; @1000nM): 53%; remaining binding at 1 µM ([9]; @1000nM, read-out: %Control): 86%; remaining binding at 1 µM ([9]; read-out: %Control @1000nM): 86%; difference in %Control versus compound Ib at 1 µM ([10]; @1000nM): -4%; remaining binding at 1 µM ([10]; @1000nM, read-out: %Control): 96%; remaining binding at 1 µM ([10]; read-out: %Control @1000nM): 96%

Row | SMILES | difference in %Control versus compound Ib at 1 µM ([3]; @1000nM) [%] | remaining binding at 1 µM ([3]; @1000nM, read-out: %Control) [%] | remaining binding at 1 µM ([3]; read-out: %Control @1000nM) [%] | %Control difference from compound Ib at 1 µM ([4]; @1000nM) [%] | remaining binding at 1 µM ([4]; @1000nM, read-out: %Control) [%] | remaining binding at 1 µM ([4]; read-out: %Control @1000nM) [%] | difference in % of control versus compound Ib at 1 µM ([5]; @1000nM) [%] | remaining binding at 1 µM ([5]; @1000nM, read-out: %Control) [%] | remaining binding at 1 µM ([5]; read-out: %Control @1000nM) [%] | difference in %Control versus compound Ib at 1 µM ([6]; @1000nM) [%] | remaining binding at 1 µM ([6]; @1000nM, read-out: %Control) [%] | remaining binding at 1 µM ([6]; read-out: %Control @1000nM) [%] | difference in %Control versus compound Ib at 1 µM ([7]; @1000nM) [%] | remaining binding at 1 µM ([7]; @1000nM, read-out: %Control) [%] | remaining binding at 1 µM ([7]; read-out: %Control @1000nM) [%] | difference in %Control from compound Ib at 1 µM ([8]; @1000nM) [%] | induction of apoptosis [1] | %Control @1000nM [2] [%] | % difference (compound - Ib %Control) [2] [%] | %Control [2] [%] | also measured
3 | CNC(=O)c1cnc(S(C)(=O)=O)nc1N1CCCC(n2nc(-c3ccc(Oc4ccccc4)cc3)c3c(N)ncnc32)C1 (stereo not shown) [Compound 8d, 4-(3-(4-Amino-3-(4-phenoxyphenyl)-1H-pyrazolo[3,4-d]pyrimidin-1-yl)piperidin-1-yl)-N-methyl-2-(methylsulfonyl)pyrimidine-5-carboxamide] | -3 | 77 | 77 | 39.1 | 41 | 41 | 5.4 | 15 | 15 | 28 | 42 | 42 | -8 | 88 | 88 | 4 | induced apoptosis | 100 | 0 | 100 | fold lower apoptotic potency than Ibrutinib [1]: ~10 fold; remaining binding at 1 µM ([8]; @1000nM, read-out: %Control): 100%; remaining binding at 1 µM ([8]; read-out: %Control @1000nM): 100%; difference in %Control from compound Ib at 1 µM ([9]; @1000nM): 45%; remaining binding at 1 µM ([9]; @1000nM, read-out: %Control): 78%; remaining binding at 1 µM ([9]; read-out: %Control @1000nM): 78%; difference in %Control versus compound Ib at 1 µM ([10]; @1000nM): 0%; remaining binding at 1 µM ([10]; @1000nM, read-out: %Control): 100%; remaining binding at 1 µM ([10]; read-out: %Control @1000nM): 100%; IC50 [11]: > 1 µM; kinact/KI [12]: 2.49e+06 M⁻¹ s⁻¹; Ki ([12]; BTK): 0.00507 ± 0.00036 µM; fold reduction of Kinact/Ki (potency) relative to 1g ([12]; BTK): 3 fold; kinact ([12]; BTK): 0.0126 ± 0.00067 s⁻¹
